# Measurements taken from patent US10064865B2, “Composition comprising phosphodiesterase type 5 inhibitor for inhibiting apoptosis of nerve cells” (ARIBIO INC., priority 2012, dated 2018).
# Marks after values point to notes of the source that are not given here.
# Assays:
# Assay type in all cases: in vivo, Sprague-Dawley (SD) rats
# [1] = tested on: PARP; test: Example 1 immunohistochemistry: PARP-immunoreactive cells; conditions: for Numbers of neurons: PARP+: 29 days after neuron apoptosis
# Procedure: (§1) The induction of neuron apoptosis was carried out by damaging the right hemisphere of the brain of animals. Specifically, animals were anesthetized with 2 or 3% isoflurane in the mixture of 70% N2O and 28.5% O2, and were maintained with 1 to 1.5% isoflurane in the mixture of 70% N2O and 28.5% O2. After that the temporalis muscle was bisected and reflected through an incision made midway between the eye and the eardrum canal. The proximal MCA was exposed through a subtemporal craniectomy by microdental drills without removing the zygomatic arch and without transecting the facial nerve. […] Mortality was less than 5%. For sham control, all procedures were performed in the same way, with the exception of the occlusion of the MCA.
# After deparraffinized of cerebral histological paraffin sections, citrate buffer antigen (epitope) retrieval pretreatment were conducted as previously (Shi S R et al., J Histochem Cytochem. 41:1599-604(1993)). Briefly, pre-heat water bath with staining dish containing 10 mM citrate buffers (pH 6.0) until temperature reaches 95-100° C. Immerse slides in the staining dish and place the lid loosely on the staining dish. Incubate for 20 minutes and turn off the water bath. Place the staining dish at room temperature and allow the slides to cool for 20 minutes. After epitope retrivals, sections were immunostained as following steps:
# Incubate sections with methanol and 0.3% H2O2 for 30 minutes for blocking endogenous peroxidase activity at room temperature and rinse in 0.01M phosphate buffered saline (PBS; pH 7.2) for 3 times;
# Incubate sections with normal horse serum blocking solution (Vector Lab. Inc., Burlingame, USA. Dilution 1:100) for 1 hour to block non-specific binding of immunoglobulin at room temperature in humidity chamber, and rinse in 0.01M PBS for 3 times;
# Incubate sections with primary antisera for overnight at 4° C. in humidity chamber and rinse in 0.01M PBS for 3 times;
# Incubate sections with biotinylated universal secondary antibody (Vector Lab., Dilution 1:50) for 1 hour at room temperature in humidity chamber and rinse in 0.01M PBS for 3 times;
# Incubate sections with ABC reagents (Vectastain Elite ABC Kit, Vector Lab., Dilution 1:50) for 1 hour at room temperature in humidity chamber and rinse in 0.01M PBS for 3 times;
# Incubate sections in Peroxidae substrate kit (Vector Lab.) for 5 min at room temperature and rinse in 0.01M PBS for 3 times;
# Counterstain with Mayer's hematoxylin solution and rinse in running tap water for 30 minutes;
# Dehydrate through 95% ethanol for 2 minutes, 100% ethanol for 3 times and Clear in xylene for two times; and
# Coverslip with permanent mounting medium and observed under light microscope (Nikkon, Japan).
# Histomorphometry: The nerve cells occupied by over 10% of immunoreactivities, the density, of each antiserum, caspase-3 and PARP were regarded as immunoreactive. In the present study, the numbers of each caspase-3 and PARP-immunoreactive cells among mm^2 of ipsilateral peri-infarct/defect cerebral cortex were measured using a computer-assisted image analysis program, respectively.
# All data were expressed as mean±standard deviation (S.D.) of ten rats. Multiple comparison tests for different dose groups were conducted. Variance homogeneity was examined using the Levene test (Levene A, Clin Otalary, 1981; 6:145-51). […] Statistical analyses were conducted using SPSS (Release 14K, SPSS Inc., USA; Ludbrook, Clin Exp Pharmacol Physiol, 1997; 24:294-6). In addition, the percent changes between neuron apoptosis control and mirodenafil treated rats were calculated to help the understanding of the efficacy of test material as follow equation 3. Percentage changes as compared with neuron apoptosis control (%)=[((Data of mirodenafil treated groups−Data of neuron apoptosis control)/Data of neuron apoptosis control)×100] [EQUATION 3]
# [2] = tested on: caspase-3; test: Example 2 immunohistochemistry: caspase-3-immunoreactive cells; conditions: for Numbers of neurons: Caspase-3+: 1 mg/kg s.c. once a day for 14 days, 29 days after neuron apoptosis
# Procedure: as §1
# After deparaffinized of prepared […] histological paraffin sections, citrate buffer antigen (epitope) retrieval pretreatment were conducted as previously (Shi S R et al., J Histochem Cytochem. 41:1599-604(1993)). Briefly, pre-heat water bath with staining dish containing 10 mM citrate buffers (pH 6.0) until temperature reaches 95-100° C. Immerse slides in the staining dish and place the lid loosely on the staining dish. Incubate for 20 minutes and turn off the water bath. Place the staining dish at room temperature and allow the slides to cool for 20 minutes. After epitope retrievals, sections were immunostained using avidin-biotin complex (ABC) methods for caspase-3 and PARP. Endogenous peroxidase activity was blocked by incubated in methanol and 0.3% H2O2 for 30 minutes, and non-specific binding of immunoglobulin was blocked with normal horse serum blocking solution (Vector Lab., Burlingame, Calif., USA. Dilution 1:100) for 1 hr in humidity chamber. Primary antiserum were treated for overnight at 4° C. in humidity chamber, and then incubated with biotinylated universal secondary antibody (Vector Lab., Dilution 1:50) and ABC reagents (Vectastain Elite ABC Kit, Vector Lab., Dilution 1:50) for 1 hr at room temperature in humidity chamber. Finally, reacted with peroxidae substrate kit (Vector Lab.) for 3 min at room temperature. All sections were rinse in 0.01M PBS for 3 times, between steps. The neurons occupied by over 10% of immunoreactivities, the density, of each antiserum for caspase-3 and PARP were regarded as positive, and the mean numbers of caspase-3 and PARPimmunoreactive cells dispersed in the mm^2 of ipsilateral peri-infarct/defect cerebral cortex were counted using an automated image analysis process as establish methods (Lee et al., 2010; Song et al., 2012), respectively. The histopathologist was blinded to the group distribution when performing the analysis.
# All data were expressed as mean±standard deviation (S.D.) of ten rats. Multiple comparison tests for different dose groups were conducted. Variance homogeneity was examined using the Levene test (Levene A, Clin Otalary, 1981; 6:145-51). […] Statistical analyses were conducted using SPSS for Windows (Release 14K, SPSS Inc., USA; Ludbrook, Clin Exp Pharmacol Physiol, 1997; 24:294-6). In addition, the percent changes as compared with neuron apoptosis control and mirodenafil treated rats were calculated to help the understanding of the efficacy of test substances as follow Equation 6 and 7. Percentage Changes as Compared with Sham Control (%)=[((Data of neuron apoptosis control−Data of sham control rat)/Data of sham control rats)×100] [EQUATION 6] Percentage Changes as Compared with neuron apoptosis Control (%)=[((Data of test material treated rats−Data of neuron apoptosis control rats)/Data of neuron apoptosis control rats)×100] [EQUATION 7]
# [3] = Example 1 body weight measurements; conditions: for Weight gains [B − A]: during 29 days after neuron apoptosis
structure (smiles),measurement,setting,value
"CCCOc1ccc(S(=O)(=O)N2CCN(CCO)CC2)cc1-c1nc2c(CCC)cn(CC)c2c(=O)[nH]1 [Mirodenafil, mirodenafil]","numbers of PARP-immunoreactive neurons, change as compared with neuron apoptosis control",[1]; 0.5 mg/kg,−37.58%
same,Numbers of neurons: PARP+,[1]; 0.5 mg/kg s.c. once a day,47.50 ± 9.44^ab cells/mm^2 of cerebral cortex
same,"numbers of PARP-immunoreactive neurons, change as compared with neuron apoptosis control",[1]; 1 mg/kg,−76.74%
same,Numbers of neurons: PARP+,[1]; 1 mg/kg s.c. once a day,17.70 ± 2.00^ab cells/mm^2 of cerebral cortex
same,"numbers of PARP-immunoreactive neurons, change as compared with neuron apoptosis control",[1]; 2 mg/kg,−78.32%
same,Numbers of neurons: PARP+,[1]; 2 mg/kg s.c. once a day,16.50 ± 3.81^ab cells/mm^2 of cerebral cortex
same,"numbers of caspase-3-immunoreactive neurons at 29 days, change as compared with neuron apoptosis control",[2]; 1 mg/kg from 24 hrs after surgery,−57.29%
same,"numbers of caspase-3-immunoreactive neurons at 29 days, change as compared with neuron apoptosis control",[2]; 1 mg/kg from 72 hrs after surgery,−40.63%
same,"numbers of caspase-3-immunoreactive neurons at 29 days, change as compared with neuron apoptosis control",[2]; 1 mg/kg from 168 hrs after surgery,−15.57%
same,Numbers of neurons: Caspase-3+,[2]; start 24 hrs after operation,30.01 ± 4.90^ab cells/mm^2 of cerebral cortex
same,Numbers of neurons: Caspase-3+,[2]; start 72 hrs after operation,41.71 ± 6.34^ab cells/mm^2 of cerebral cortex
same,Numbers of neurons: Caspase-3+,[2]; start 168 hrs after operation,59.33 ± 5.13^a cells/mm^2 of cerebral cortex
same,"body weight gains during 29 days, change as compared with neuron apoptosis control",[3]; 0.5 mg/kg,45.53%
same,Body weights at 29 days after surgery [B],[3]; 0.5 mg/kg s.c. once a day,502.60 ± 23.09^a
same,Weight gains [B − A],[3]; 0.5 mg/kg s.c. once a day,−7.60 ± 9.19^a g
same,Body weights at 29 days after surgery [B],[3]; 1 mg/kg s.c. once a day,526.40 ± 23.45^bd
same,Weight gains [B − A],[3]; 1 mg/kg s.c. once a day,16.10 ± 7.80^ac g
same,Body weights at 29 days after surgery [B],[3]; 2 mg/kg s.c. once a day,520.90 ± 30.21^b
same,Weight gains [B − A],[3]; 2 mg/kg s.c. once a day,7.50 ± 11.20^ac g
